Assay: mn = molality of the nth substance listed, in mol/kg
Settings: 101 kPa, Liquid; for viscosity: Capillary tube (Ostwald / Ubbelohde) method

CN1CCCC1=O.O=S(=O)(O)c1ccccc1 [1-methyl-2-pyrrolidinone benzenesulfonate] + O
Settings	mass density, 298.15 K [kg/m3]	mass density, 303.15 K [kg/m3]	mass density, 308.15 K [kg/m3]	viscosity, 298.15 K [mPa·s]	viscosity, 303.15 K [mPa·s]	viscosity, 308.15 K [mPa·s]
m1 = 0.0521	1000.25	998.54	996.69	0.9266	0.8213	0.7506
m1 = 0.1042	1003.16	1001.68	999.93	0.9506	0.845	0.7706
m1 = 0.1369	1004.9	1003.46	1001.57	0.9685	0.8602	0.7809
m1 = 0.2057	1008.79	1007.07	1004.83	1.003	0.8912	0.8063
m1 = 0.2512	1011.09	1009.23	1006.69	1.028	0.9109	0.8208
m1 = 0.2984	1013.59	1011.55	1008.84	1.055	0.9313	0.8393
m1 = 0.3556	1016.55	1014.41	1011.59	1.083	0.9567	0.8611
m1 = 0.4028	1018.9	1016.7	1013.74	1.107	0.9774	0.8786
m1 = 0.4537	1021.44	1019.25	1016.36	1.133	1.002	0.8972
m1 = 0.5093	1024.16	1022.14	1019.21	1.16	1.025	0.9174
m1 = 0.6018	1028.61	1026.63	1023.82	1.204	1.065	0.9514
m1 = 0.6492	1030.83	1028.91	1026.28	1.226	1.085	0.9692
m1 = 0.7511	1035.5	1033.54	1030.78	1.277	1.13	1.009
m1 = 0.8129	1038.24	1036.23	1033.29	1.309	1.158	1.034
m1 = 0.871	1040.72	1038.49	1035.54	1.341	1.185	1.059
m1 = 0.9001	1042.02	1039.67	1036.66	1.358	1.198	1.072
m1 = 1.019	1047.01	1044.27	1041.12	1.423	1.257	1.127
m1 = 1.199	1054.33	1052.06	1049.61	1.54	1.358	1.219

CN1CCCC1=O.Cc1ccc(S(=O)(=O)O)cc1 [1-methyl-2-pyrrolidinone p-toluenesulfonate] + O
Settings	mass density, 298.15 K [kg/m3]	mass density, 303.15 K [kg/m3]	mass density, 308.15 K [kg/m3]	viscosity, 298.15 K [mPa·s]	viscosity, 303.15 K [mPa·s]	viscosity, 308.15 K [mPa·s]
m1 = 0.0499	999.98	998.53	996.06	0.9405	0.8355	0.7579
m1 = 0.1012	1002.71	1000.47	998.66	0.9707	0.8613	0.7776
m1 = 0.1588	1005.8	1004.01	1002.3	0.9996	0.8905	0.8002
m1 = 0.1983	1007.95	1006.37	1004.65	1.021	0.9097	0.8164
m1 = 0.2691	1011.73	1010.16	1008.34	1.059	0.9445	0.8406
m1 = 0.3004	1013.31	1011.73	1009.85	1.077	0.9602	0.8511
m1 = 0.3421	1015.42	1013.71	1011.83	1.1	0.9826	0.8691
m1 = 0.398	1018.29	1016.41	1014.42	1.13	1.007	0.892
m1 = 0.4495	1020.8	1018.89	1016.77	1.155	1.03	0.9131
m1 = 0.5139	1023.87	1021.88	1019.63	1.191	1.058	0.9369
m1 = 0.6053	1028.17	1026.17	1023.9	1.241	1.099	0.9752
m1 = 0.6615	1030.76	1028.65	1026.41	1.272	1.127	0.9976
m1 = 0.7504	1034.66	1032.58	1030.21	1.319	1.169	1.036
m1 = 0.7605	1035.06	1033	1030.65	1.324	1.173	1.04
m1 = 0.8335	1038.2	1036.01	1033.59	1.366	1.207	1.072
m1 = 0.9023	1041.05	1038.67	1036.34	1.411	1.244	1.106
m1 = 1.007	1045.23	1042.61	1040.36	1.477	1.299	1.161
m1 = 1.201	1052.61	1050.61	1048.17	1.61	1.409	1.266
